From patent US20150064200A1, “METHODS AND COMPOSITIONS FOR 6-PHOSPHOGLUCONATE DEHYDROGENASE (6-PGD) AS A TARGET FOR LUNG CANCER THERAPY” (BETH ISRAEL DEACONESS MEDICAL CENTER, INC., priority 2012, published 2015)
Where “and” joins values, the source holds several entries; their conditions need not be identical. Equal entries are not always repeated.

Experiments:
6-PGD = test: Western blot of 6-PGD expression after inducible shRNA knockdown; type: cell-based, human; details: H1975 cells
Excerpt: (§1) To test the functional role of 6-PGD in human non small cell lung carcinoma (NSCLC), we used H1975 cells as our model system (FIG. 2A). These adenocarcinoma cells harbor two mutations in the EGFR (L858R/T790M) and are widely used to study the mechanism and treatment of gefitinib/erlotinib-resistant lung cancer cells. We chose to use an inducible shRNA system to knock down 6-PGD expression. Three nonoverlapping shRNAs were chosen in these experiments. […] Importantly, 6-PGD expression knockdown caused a substantial decrease in cell proliferation. To further corroborate the involvement of 6-PGD in NSCLC proliferation in vitro, we performed expression rescue experiments (FIG. 2B). H1975 cells expressing control shRNA or 6-PGD shRNA1 were transduced by either empty- or mouse-6PGD retrovirus. […] Overexpression of mouse 6-PGD alone enhanced H1975 cell growth. […] Our result confirmed that the growth inhibition was due to 6-PGD knockdown and not a non-specific artifact of the shRNA.

H1975 cells [1] = test: Cell proliferation of H1975 cells upon knockdown; type: cell-based, human; details: 6-PGD knockdown
Excerpt: as §1
The dramatic decrease in cell proliferation when 6-PGD was knocked down implies that the oxidative branch of the pentose phosphate pathway (PPP) could be indispensable for cell growth. […] To address this discrepancy, we next knocked down G6PD by transient siRNA transfection in H1975 cells. […] Therefore, the dramatic growth inhibition observed when 6-PGD was knocked down was not simply a result of PPP blockade. […]

[2] = test system: senescence-associated beta galactosidase (SA-β-GAL) activity; test: Senescence-associated beta galactosidase (SA-β-GAL) staining and chromogenic assay; type: cell-based, human; details: cells with 6-PGD knockdown
Excerpt: We noticed that the cells with 6-PGD knocked down were enlarged and flattened-shapes characteristic of cells undergoing senescence. We therefore stained the cells for senescence-associated beta galactosidase (SA-β-GAL) activity. Because shRNA1 and shRNA2 had the most dramatic effects on 6-PGD expression and cell proliferation, we opted to test these two shRNAs in these experiments. […] Therefore, we concluded that suppression of 6-PGD induces cellular senescence in these cancer cells.
We tested whether the use of glucose or fructose in the medium might influence the phenotypic outcome of 6-PGD suppression. Fructose can be used to generate glycolytic metabolites via different pathways. For example, in the liver, fructose can be phosphorylated by fructokinase to yield fructose-1-phosphate and ultimately glyceraldehyde-3-phosphate to re-enter glycolysis. Fructose can also enter glycolysis when phosphorylated by hexokinase to become fructose-6-phosphate. We reasoned that if H1975 could metabolize fructose by these mechanisms, cells grown in fructose without glucose would likely be devoid of glucose-6-phosphate, bypassing the oxidative branch of the PPP. This scenario may be similar to the PPP shutdown by means of G6PD depletion. H1975 cells were treated with doxycycline to induce 6-PGD knockdown in 2 g/L fructose (no glucose). […]

p53 = test: Western blot of p53 expression in cells with 6-PGD knockdown; type: cell-based, human; details: H1975 cells
Excerpt: One of the main mechanisms for cellular senescence induction is the p53 pathway. Therefore we hypothesized that p53 expression might be increased in cells with 6-PGD knockdown.

H1975 cells [3] = test: Oxygen consumption rate (OCR); type: cell-based, human
Excerpt: We suspected that upon 6-PGD knockdown, these cells might have maintained NADPH level by enhanced glutaminolysis, another major mechanism for NADPH production. We therefore examined the rate of oxygen consumption of these cells, as NADPH production via glutaminolysis requires oxygen.

H1975 cells [4] = test: Metabolite levels by mass spectrometry upon 6-PGD knockdown; type: cell-based, human; details: H1975, doxycycline three days, vs control shRNA
Experimental: Both control- and 6-PGD shRNA1-expressing H1975 cells were treated with doxycycline for three days. Metabolites were extracted for analysis by mass spectrometry. Results are grouped according to metabolic pathways (Table 5). […] Specifically, as might be expected, 6-phospho-D-gluconate and D-glucono-δ-lactone-6-phosphate levels were up by 11 and 7.9 fold, respectively. Direct determination of the effects in the non-oxidative branch was more difficult, as levels of some key intermediates such as xylulose-5-phosphate and D-sedo-heptulose-7-phosphate were not determined in our mass spectrometric analysis. However, there was no change in the level of total ribose phosphates, downstream products of the PPP. Importantly, levels of all the triphosphate nucleotides essential for DNA and RNA synthesis were essentially unchanged. […] Glycolysis also appeared to be affected by 6-PGD knockdown. Both glucose-6-phosphate and fructose-6-phosphate levels were increased, perhaps due to a backlog in the PPP. […] We believe that these intermediates were shunted to the non-oxidative PPP via the transketolase reactions using glyceraldehyde-3-phosphate as the entry point. These transketolase reactions would compensate for the blockade at 6-PGD and provide a carbon source for ribose phosphate production and maintenance of dNTP/NTP levels. […] In particular NADPH level was determined by this metabolomic analysis to be also unchanged by 6-PGD knockdown, consistent with result obtained by the colorimetric assay (FIG. 5A).

H1975 cells [5] = test: H1975 xenograft tumor growth in nude mice; type: in vivo; details: H1975 cells induced with doxycycline, subcutaneous in nude mice, tumors weighed after 18 days
Excerpt: We sought to test whether 6-PGD knockdown would inhibit tumor growth in a xenograft model. Control shRNA-, 6-PGD shRNA1, and 6-PGD shRNA2-H1975 cells were induced with doxycycline in vitro for three days prior to subcutaneous injection into nude mice. Mice were fed with doxycycline supplemented in drinking water. Tumors were excised after 18 days and weighed.

mouse 6-PGD = test: Western blot of exogenous mouse 6-PGD expression in rescue experiment; type: cell-based; details: H1975 cells transduced with mouse-6PGD retrovirus, doxycycline induction
Excerpt: as §1

Substance: shRNA1: 6-PGD specific shRNA from Open Biosystems, Oligo ID V3LHS_381993, mature sequence AGU UUG AUG GUG AUA AGA A (guide AGUUUGAUGGUGAUAAGAA; shRNA hairpin; mature sequence only)
- expression of 6-PGD (6-PGD): most effective
- cell proliferation (H1975 cells [1]): significantly blocked proliferation
- number of cells positive for SA-β-GAL staining [2]: significantly increased
- p53 expression (p53): significantly upregulated
- oxygen consumption rate (OCR) (H1975 cells [3]): significant increase
- Fold Change Glutamate (H1975 cells [4]; Glutamine/Glutamate): −1.1 fold
- Fold Change Glutamine (H1975 cells [4]; Glutamine/Glutamate): −1.1 fold
- Fold Change 1,3-Diphopshateglycerate (H1975 cells [4]; Glycolysis): 0.0 fold
- Fold Change 3-Phosphoglycerate (H1975 cells [4]; Glycolysis): −2.1 fold
- Fold Change D-Glyceraldehdye-3-phosphate (H1975 cells [4]; Glycolysis): −3.8 fold
- Fold Change Dihyroxyacetone-phosphate (H1975 cells [4]; Glycolysis): −5.9 fold
- Fold Change Fructose-1,6-bisphosphate (H1975 cells [4]; Glycolysis): −4.6 fold
- Fold Change Fructose-6-phosphate (H1975 cells [4]; Glycolysis): 1.4 fold
- Fold Change Glucose-6-phosphate (H1975 cells [4]; Glycolysis): 1.8 fold
- Fold Change Lactate (H1975 cells [4]; Glycolysis): −1.2 fold
- Fold Change Phosphoenolpyruvate (H1975 cells [4]; Glycolysis): −2.8 fold
- Fold Change Pyruvate (H1975 cells [4]; Glycolysis): 1.3 fold
- Fold Change ATP (H1975 cells [4]; NTPs/dNTPs): 1.2 fold
- Fold Change CTP (H1975 cells [4]; NTPs/dNTPs): 1.0 fold
- Fold Change GTP (H1975 cells [4]; NTPs/dNTPs): 1.5 fold
- Fold Change UTP (H1975 cells [4]; NTPs/dNTPs): 1.2 fold
- Fold Change dATP (H1975 cells [4]; NTPs/dNTPs): −1.1 fold
- Fold Change dCTP (H1975 cells [4]; NTPs/dNTPs): 1.0 fold
- Fold Change dGTP (H1975 cells [4]; NTPs/dNTPs): 1.2 fold
- Fold Change dTTP (H1975 cells [4]; NTPs/dNTPs): −1.2 fold
- Fold Change D-Glucono-δ-lactone-6-phosphate (H1975 cells [4]; PPP): 7.9 fold
- Fold Change Ribose-phosphate (H1975 cells [4]; PPP): 1.2 fold
- Fold Change 6-Phospho-D-gluconate (H1975 cells [4]; PPP, listed as 6-PGD shRNA1): 11 fold and 11.0 fold
- Fold Change Glutathione (H1975 cells [4]; REDOX): −1.3 fold
- Fold Change Glutathione disulfide (H1975 cells [4]; REDOX): 1.0 fold
- Fold Change NAD+ (H1975 cells [4]; REDOX): 1.2 fold
- Fold Change NADH (H1975 cells [4]; REDOX): −1.5 fold
- Fold Change NADP+ (H1975 cells [4]; REDOX): 1.3 fold
- Fold Change NADPH (H1975 cells [4]; REDOX): −1.1 fold
- Fold Change Acetyl-CoA (H1975 cells [4]; TCA): 1.6 fold
- Fold Change Citrate (H1975 cells [4]; TCA): 1.1 fold
- Fold Change Fumarate (H1975 cells [4]; TCA): 1.0 fold
- Fold Change Isocitrate (H1975 cells [4]; TCA): −1.1 fold
- Fold Change Malate (H1975 cells [4]; TCA): −1.3 fold
- Fold Change Oxaloacetate (H1975 cells [4]; TCA): −1.1 fold
- Fold Change Succinate (H1975 cells [4]; TCA): −1.3 fold
- Fold Change α-Ketoglutarate (H1975 cells [4]; TCA): −1.2 fold
- tumor growth (H1975 cells [5]): significantly retarded tumor growth
- expression of mouse 6-PGD (mouse 6-PGD): without affecting the expression of mouse 6-PGD

Substance: shRNA2: 6-PGD specific shRNA from Open Biosystems, Oligo ID V3LHS_381995, mature sequence AGG ACU GUC UCC AAA GUU G (guide AGGACUGUCUCCAAAGUUG; shRNA hairpin; mature sequence only)
- expression of 6-PGD (6-PGD): most effective
- number of cells positive for SA-β-GAL staining [2]: significantly increased
- p53 expression (p53): significantly upregulated
- oxygen consumption rate (OCR) (H1975 cells [3]): significant increase
- tumor growth (H1975 cells [5]): significantly retarded tumor growth
